Article PMC11477717, “Synthesis of Carborane–Thiazole Conjugates as Tyrosinase and 11β-Hydroxysteroid Dehydrogenase Inhibitors: Antiproliferative Activity and Molecular Docking Studies” (Molecules, 2024)
Where two headings read alike, the source gives them in different places.

Columns and labels:
[1] = test system: A172 (human brain glioblastoma); test: MTT antiproliferative assay, A172; assay type: cell-based; settings: for IC50: MTT, 72 h, A172 cells, read-out: IC50 ± SD A172; for SI HUVEC/A172: selectivity index = IC50 normal cell line / IC50 cancer cell line
Method: (§1) All cell lines were obtained from ATCC, and all chemicals were purchased from Sigma-Aldrich, St. Louis, MO, USA. […] All media were supplemented with antibiotic and antimycotic solutions, according to the manufacturers’ instructions. MTT cytotoxicity assessments were performed as described previously. […] The cells counted using an automated cell counter (Countess® II FL, Invitrogen by Thermo Fisher Scientific Inc., Waltham, MA, USA) were plated in 96-well plates (Nunc Edge 2F, Thermo Fisher Scientific Inc.) at a density of 0.1 × 10^4 per well. After an additional 72 h, cells underwent an MTT cytotoxicity assay (see below). The IC50 values were calculated using ED50plus v 1.0 freeware software (Instituto Nacional de Enfermedades Respiratorias, Mexico City, Mexico). Each cell line was tested in three independent replicates.
(§2) After the incubation time was complete, the medium was removed and crystals of formazan were solubilized in pure isopropanol. The absorbance readout was conducted immediately using a plate reader, Multiskan Spectrum, at 570 nm (Thermo Fisher Scientific Inc., Waltham, MA, USA). The background optical density was measured in the wells filled with the culture medium, without any cells.

B16F10 (murine melanoma) = test: MTT antiproliferative assay, B16F10; assay type: cell-based; settings: for IC50: MTT, 72 h, B16F10 cells, read-out: IC50 ± SD B16F10; for SI HUVEC/ B16F10: selectivity index = IC50 normal cell line / IC50 cancer cell line
Method: as §1, §2

[2] = test system: MDA-MB-231 (human breast adenocarcinoma); test: MTT antiproliferative assay, MDA-MB-231; assay type: cell-based; settings: for IC50: MTT, 72 h, MDA-MB-231 cells, read-out: IC50 ± SD MDA-MB-231; for SI HUVEC/ MDA-MB-231: selectivity index = IC50 normal cell line / IC50 cancer cell line
Method: as §1, §2

[3] = test system: HUVEC (human umbilical vein endothelial cells); test: MTT antiproliferative assay, HUVEC healthy control; assay type: cell-based; settings: 72 h, HUVEC normal cells, read-out: IC50 ± SD HUVEC
Method: All cell lines were obtained from ATCC, and all chemicals were purchased from Sigma-Aldrich, St. Louis, MO, USA. Briefly, cells were cultivated in a controlled atmosphere using DMEM medium with fetal bovine serum (FBS) at a final concentration of 10% (A-172), an L15 medium with 15% FBS, cultivated without CO2 (MDA-MB-231), F12K with a heparin final concentration of 0.1 mg/mL, endothelial cell growth supplement with a final concentration of 0.03 mg/mL (HUVEC), and RPMI with 5% FBS. All media were supplemented with antibiotic and antimycotic solutions, according to the manufacturers’ instructions. MTT cytotoxicity assessments were performed as described previously. Briefly, cell lines A172, B16F10, MDA-MB-231, and HUVEC were seeded 24 h prior to the addition of the tested compounds. The cells counted using an automated cell counter (Countess® II FL, Invitrogen by Thermo Fisher Scientific Inc., Waltham, MA, USA) were plated in 96-well plates (Nunc Edge 2F, Thermo Fisher Scientific Inc.) at a density of 0.1 × 10^4 per well. After an additional 72 h, cells underwent an MTT cytotoxicity assay (see below). The IC50 values were calculated using ED50plus v 1.0 freeware software (Instituto Nacional de Enfermedades Respiratorias, Mexico City, Mexico). Each cell line was tested in three independent replicates.
as §2, with “Twenty microliters of an MTT solution (MTT: 3-(4,5-dimethylthiazol-2-yl)-2,5-diphenyl tetrazolium bromide, stock solution: 5 mg/mL) was added to each cell line for 2 h (A172, B16F10, MDA-MB-231, and HUVEC). After” for “After”

11β-HSD1 = biological target: T1, 11β-HSD1 (Homo sapiens, UniProt P28845); test: Inhibition of 11β-HSD1 assay (cortisone to cortisol, microsomes, cortisol ELISA); assay type: biochemical
T1 construct: tissue XenoTech Lot No. 1410013; host or cells: pooled human liver microsomes
Method: L160706125, was obtained from Cloud-Clone Corp. PBS, Lot No. H161008, was obtained from Pan Biotech. […] L191113457, was obtained from Cloud-Clone Corp. […] The microplates were incubated on an orbital shaker for 150 min at 37 °C. […] The quantity of cortisol formed from cortisone was determined using a cortisol ELISA kit, […].

mushroom tyrosinase [4] = biological target: T2, mushroom tyrosinase (Agaricus bisporus, UniProt C7FF04); test: Mushroom tyrosinase inhibition assay (L-DOPA, dopachrome 475 nm); assay type: biochemical
T2 construct: purchased Sigma-Aldrich
Method: The mushroom tyrosinase (Sigma-Aldrich) inhibition was performed following previously reported methods. […] The inhibitor solutions were prepared in DMSO with an initial concentration of 1 mM. Different aliquots were added to the solution containing the buffer, L-DOPA, and EDTA, with the enzyme being added last. […] Ascorbic acid was used as a reference inhibitor with an initial concentration of 1 mM. The IC50 values were calculated from the equation generated via exponential fit of the experimental data.

mushroom tyrosinase [5] = biological target: T2, mushroom tyrosinase; test: Kinetic analysis of the inhibition of tyrosinase (Lineweaver-Burk); assay type: biochemical; settings: compound at 0.05 mM; for Mechanism of Inhibition: Lineweaver-Burk plots; for Vmax: L-DOPA 100-250 µM
Method: A series of experiments were performed to determine the inhibition kinetics of compounds by following the already reported method. The inhibitor concentrations for compounds were 50 and 100 µM. The substrate L-DOPA concentration was between 100 and 250 µM in all kinetic studies. Maximal initial velocity was determined from the initial linear portion of absorbance up to ten minutes after the addition of the enzyme. The inhibition type of the enzyme, Michaelis constant (KM), and maximal velocity (Vmax) were determined by Lineweaver–Burk plots of the inverse of velocities (1/V) versus the inverse of substrate concentration 1/[L-DOPA] mM^−1.

11β-HSD2 = biological target: T3, 11β-HSD2 (Homo sapiens, UniProt P80365); test: Inhibition of 11β-HSD2 assay (cortisol to cortisone, microsomes, cortisol ELISA); assay type: biochemical; settings: inhibitor 10 µM, 150 min, 37 °C
T3 construct: Human kidney microsomes, mixed gender, 0.5 mL, 10 mg/mL, Lot No. 1710160, were obtained from XenoTech; tissue XenoTech Lot No. 1710160; host or cells: human kidney microsomes
T3 sequence (P80365 1-405): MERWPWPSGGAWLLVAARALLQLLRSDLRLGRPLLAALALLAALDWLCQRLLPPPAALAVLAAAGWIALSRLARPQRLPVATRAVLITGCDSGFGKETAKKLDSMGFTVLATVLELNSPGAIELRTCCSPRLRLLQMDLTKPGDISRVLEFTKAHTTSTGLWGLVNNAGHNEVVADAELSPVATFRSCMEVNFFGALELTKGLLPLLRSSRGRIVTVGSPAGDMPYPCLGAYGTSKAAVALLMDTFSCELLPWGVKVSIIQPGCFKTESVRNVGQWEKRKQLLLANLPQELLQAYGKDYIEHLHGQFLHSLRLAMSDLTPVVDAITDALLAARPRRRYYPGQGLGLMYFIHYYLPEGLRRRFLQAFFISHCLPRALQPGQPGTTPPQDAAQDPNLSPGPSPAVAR
Method: The Enzyme-Linked Immunosorbent Assay (ELISA) Kit for 11-Beta-Hydroxysteroid Dehydrogenase Type 1, Lot No. L160706125, was obtained from Cloud-Clone Corp. PBS, Lot No. H161008, was obtained from Pan Biotech. […] The Enzyme-Linked Immunosorbent Assay (ELISA) Kit for 11-Beta-Hydroxysteroid Dehydrogenase Type 2, Lot No. L191113457, was obtained from Cloud-Clone Corp.
The oxidation reaction of cortisol to cortisone was carried out on 96-well microtiter plates in the presence of the enzyme 11β-HSD2 in a total volume of 100 µL. To this end, 60 µL of phosphate buffer (pH 7.4), 10 µL of a microsomes(0.12 µg/mL […]) solution in PBS (final quantity 2.5 µg), 20 µL of substrate mixture cortisol/NAD (final concentration 200 nM/2 mM), and 10 µL of the appropriate inhibitor solution (solvent DMSO/water 1/99, final concentration 10 µM) were placed in each well. The microplates were incubated on an orbital shaker for 150 min at 37 °C. […] The quantity of unreacted cortisol was determined using a cortisol ELISA kit DiaMetra.

[6] = inhibitor 10 µM, 150 min, 37 °C
[7] = L-DOPA 0.17 mM, pH 6.8, room temperature, read-out: IC50 ± SD mushroom tyrosinase
[8] = rounded values in SAR summary, unit mM, read-out: IC50 tyrosinase inhibition
[9] = 5 inhibitor concentrations, three independent determinations, read-out: IC50 ± SD 11β-HSD1

T1 sequence (P28845 whole entry): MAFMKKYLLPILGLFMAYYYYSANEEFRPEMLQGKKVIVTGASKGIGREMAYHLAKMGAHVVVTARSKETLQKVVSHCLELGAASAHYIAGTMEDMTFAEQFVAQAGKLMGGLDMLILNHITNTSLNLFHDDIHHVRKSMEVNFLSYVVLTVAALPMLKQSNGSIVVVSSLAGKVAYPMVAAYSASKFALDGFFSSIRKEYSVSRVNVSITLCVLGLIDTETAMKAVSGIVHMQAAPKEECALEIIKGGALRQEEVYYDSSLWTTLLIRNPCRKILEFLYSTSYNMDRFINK
T2 sequence (C7FF04 1-392 limits assumed): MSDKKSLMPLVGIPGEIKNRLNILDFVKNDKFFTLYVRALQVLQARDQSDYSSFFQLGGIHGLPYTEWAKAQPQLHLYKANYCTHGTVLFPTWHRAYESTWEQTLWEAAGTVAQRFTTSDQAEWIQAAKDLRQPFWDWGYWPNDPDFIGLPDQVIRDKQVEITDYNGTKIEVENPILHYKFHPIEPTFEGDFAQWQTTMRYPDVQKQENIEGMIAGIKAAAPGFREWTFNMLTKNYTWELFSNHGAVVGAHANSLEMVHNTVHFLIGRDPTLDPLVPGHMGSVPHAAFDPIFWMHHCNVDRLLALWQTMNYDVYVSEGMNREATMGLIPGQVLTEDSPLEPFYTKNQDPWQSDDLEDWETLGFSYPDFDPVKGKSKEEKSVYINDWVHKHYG

| Compound | IC50 ([1]; Homo sapiens, A 172) | IC50 (B16F10 (murine melanoma); Mus musculus, B16-F10) | SI HUVEC/ B16F10 (B16F10 (murine melanoma)) | IC50 ([2]; Homo sapiens) | IC50 ([3]; Homo sapiens) | inhibition at 10 µM (11β-HSD1; [6]) | IC50 [1] | IC50 (B16F10 (murine melanoma)) | IC50 [2] | IC50 [3] | IC50 (mushroom tyrosinase [4]; [7]) | IC50 (mushroom tyrosinase [4]; [8]) | Mechanism of Inhibition (mushroom tyrosinase [5]) | Vmax (mushroom tyrosinase [5]) | SI HUVEC/A172 [1] | SI HUVEC/ MDA-MB-231 [2] | IC50 (11β-HSD1; [9]) | % of 11β-HSD1 Inhibition 10 μM (11β-HSD1; [6]) | IC50 (11β-HSD1; values in SAR summary, unit inferred, read-out: IC50 11β-HSD1 (unit inferred)) | % of 11β-HSD2 Inhibition 10 μM (11β-HSD2) |
| --- | --- | --- | --- | --- | --- | --- | --- | --- | --- | --- | --- | --- | --- | --- | --- | --- | --- | --- | --- | --- |
| O=C(O)CCCc1ccc(N(CCCl)CCCl)cc1 [chlorambucil, reference compound] | > 10 µM | 5.44 ± 0.19 µM | 1.37 | > 10 µM | 7.43 ± 0.54 µM |  |  |  |  |  |  |  |  |  |  |  |  |  |  |  |
| CC1(C)[C@@H](OC(=O)CCC(=O)O)CC[C@]2(C)[C@H]3C(=O)C=C4[C@@H]5C[C@@](C)(C(=O)O)CC[C@]5(C)CC[C@@]4(C)[C@]3(C)CC[C@@H]12 [Carbenoxolone, carbenoxolone, reference compound] |  |  |  |  |  | 88.9% |  |  |  |  |  |  |  |  |  |  |  |  |  |  |
| 4-(Adamant-1-yl)-2-(2-(1,2-Dicarba-closo-Dodecaboranylmethylene)Hydrazinyl)Thiazole [4k] |  |  |  |  |  |  | > 10 µM | > 10 µM | > 10 µM | 5.86 ± 0.34 µM | 0.134 ± 0.00584 mM | 0.134 mM | Mixed | 0.7863 mM/min |  |  |  |  |  |  |
| 4-(2-(2-(1,2-Dicarba-closo-Dodecaboranylmethylene)Hydrazinyl)Thiazol-4-yl)Benzene-1-Sulfonyl Fluoride [4j] |  |  | >1.74 |  |  |  | 6.4 ± 0.71 µM | 5.75 ± 0.46 µM | 6.43 ± 0.23 µM | > 10 µM |  |  | Mixed | 0.7876 mM/min | >1.56 | >1.56 |  |  |  |  |
| 4-(2-(2-(1,2-Dicarba-closo-Dodecaboranylmethylene)Hydrazinyl)Thiazol-4-yl)Benzonitrile [4h] |  |  | 1.11 |  |  |  | 7.72 ± 1.25 µM | 5.56 ± 0.3 µM | 6.64 ± 0.81 µM | 6.17 ± 0.35 µM |  |  | Mixed | 0.1258 mM/min | 0.80 | 0.93 |  |  |  |  |
| O=C1O[C@H]([C@@H](O)CO)C(O)=C1O [Ascorbic acid, reference compound] |  |  |  |  |  |  |  |  |  |  | 0.387 ± 0.012 mM |  |  |  |  |  |  |  |  |  |
| 2-(2-(1,2-Dicarba-closo-Dodecaboranylmethylene)Hydrazinyl)-4-(4-Fluorphenyl)Thiazole [4c] |  |  | 1.35 |  |  |  | 7.1 ± 1.9 µM | 5.57 ± 0.39 µM | 6.02 ± 0.08 µM | 7.51 ± 0.64 µM | 0.143 ± 0.00938 mM |  | Activator | 0.0810 mM/min | 1.06 | 1.25 | 8.1 ± 2 µM | 55.74% | 7.9 to 8.1 µM | 21.70% |
| 4-(4-Bromophenyl)-2-(2-(1,2-Dicarba-closo-Dodecaboranylmethylene)Hydrazinyl)Thiazole [4b] |  |  | 1.39 |  |  |  | 6.15 ± 0.26 µM | 5.37 ± 0.11 µM | 6.56 ± 0.12 µM | 7.46 ± 0.13 µM | 0.145 ± 0.0144 mM |  | Activator | 0.0912 mM/min | 1.21 | 1.14 | 6.9 ± 1.2 µM | 64.44% |  | 27.36% |
| 2-(2-(1,2-Dicarba-closo-Dodecaboranylmethylene)Hydrazinyl)-4-p-Tolylthiazole [4d] |  |  |  |  |  |  | 7.88 ± 0.98 µM | > 10 µM | 6.85 ± 0.86 µM | 8.32 ± 0.09 µM | 0.121 ± 0.0219 mM | 0.121 mM | Mixed | 0.3820 mM/min | 1.06 | 1.21 | 9.05 ± 0.25 µM | 55.78% |  | 27.83% |
| 2-(2-(1,2-Dicarba-closo-Dodecaboranylmethylene)Hydrazinyl)-4-(3,4,5-Trimethoxyphenyl)Thiazole [4i] |  |  | >1.70 |  |  |  | > 10 µM | 5.88 µM | > 10 µM | > 10 µM | 0.18 ± 0.00783 mM |  | Mixed | 0.5474 mM/min |  |  |  |  |  |  |
